Experimental data published in patent publication US12702689B2, “Anti-inflammatory compositions, and uses thereof” (P.L. THOMAS & CO., INC., priority 2022, dated 2026).

Columns and labels:
Format in all cases: in vivo, BALB/cJ female mice
[1] = system: BAL leukocytes and eosinophils; assay: BAL fluid total and differential cell counts in OVA allergic airway model; details: 100 mg/kg AKBA
[2] = system: IL-5, IL-4, IL-13, IL-10 in BAL fluid; assay: BAL fluid cytokine markers, multiplex flow-cytometry based assay; details: OVA+AKBA mice, 100 mg/kg AKBA
Excerpt: Allergic airway phenotype was induced by using an ovalbumin (OVA, hen egg) sensitization and challenge model as previously described with modifications [Beigelman, A. et al. Azithromycin attenuates airway inflammation in a noninfectious mouse model of allergic asthma. Chest 136, 498-506 (2009)]. Briefly (FIG. 1), two groups of mice (OVA control and OVA+AKBA) were sensitized with intraperitoneal ovalbumin plus alum on days 0 and 7, challenged for 3 days (day 14 to day 17) via nebulized OVA at 1% in PBS for 30 mins, and harvested 48 hr after final challenge. Supplementation groups (OVA+AKBA) were given 100 mg/kg of water soluble AKBA (pH 7) (PLT Health Solutions, Morristown, NJ, US) in autoclaved mouse water, via gavage, every other day for 10 days and then every day for the remainder of the experiment (9 days). OVA control and naïve mouse continued to receive normal autoclaved mouse water. Mice were weighted at the beginning and end of the experiment. Experiments involving AKBA were conducted twice, with the first group containing 5 mice per group and the second containing 15 mice per group (5 per group for naive). Experiment procedures were identical, and results were pooled for n=20 (n=5 for naive). Animal protocol 102063-0522 was approved by the University of Connecticut Health IACUC board. Experiments were repeated, as stated above, with oral gavages of B. pseudolongum culture in place of AKBA supplementation. Groups were designated as OVA control (n=10), OVA+B. pseudolongum (n=10) and naïve (n=5). OVA+B. pseudolongum groups were given 10^8 CFU B. pseudolongum in culture medium via gavage, every other day for 10 days and then every day for the remainder of the experiment (9 days). Multiple inflammatory mediators were analyzed in the cell-free supernatant of BAL fluid using a multiplex flow-cytometry based assay according to manufacturer's recommendations (BioLegend, San Diego, CA, US). Volume of cell free fluid was concentrated using a 50K centrifugal filter spun at 3000 g for 10-15 minutes. Samples were run on a ZE5 Cell Analyzer (Bio-Rad, Hercules, CA, US) and sample processing was conducting using software provided from the kit's manufacturer (BioLegend, San Diego, CA, US). Serum specific ovalbumin IgE levels was detected by using an ELISA kit with a sensitivity of 3.8 ng/mL per manufacturer's protocol (Cayman Chemical Company, Ann Arbor, MI, US).

gut microbiome = assay: Gut microbiome profiling of fecal pellets by 16S rRNA sequencing
Excerpt: Allergic airway phenotype was induced by using an ovalbumin (OVA, hen egg) sensitization and challenge model as previously described with modifications [Beigelman, A. et al. Azithromycin attenuates airway inflammation in a noninfectious mouse model of allergic asthma. Chest 136, 498-506 (2009)]. Briefly (FIG. 1), two groups of mice (OVA control and OVA+AKBA) were sensitized with intraperitoneal ovalbumin plus alum on days 0 and 7, challenged for 3 days (day 14 to day 17) via nebulized OVA at 1% in PBS for 30 mins, and harvested 48 hr after final challenge. Supplementation groups (OVA+AKBA) were given 100 mg/kg of water soluble AKBA (pH 7) (PLT Health Solutions, Morristown, NJ, US) in autoclaved mouse water, via gavage, every other day for 10 days and then every day for the remainder of the experiment (9 days). OVA control and naïve mouse continued to receive normal autoclaved mouse water. Mice were weighted at the beginning and end of the experiment. Experiments involving AKBA were conducted twice, with the first group containing 5 mice per group and the second containing 15 mice per group (5 per group for naive). Experiment procedures were identical, and results were pooled for n=20 (n=5 for naive). Animal protocol 102063-0522 was approved by the University of Connecticut Health IACUC board. Experiments were repeated, as stated above, with oral gavages of B. pseudolongum culture in place of AKBA supplementation. Groups were designated as OVA control (n=10), OVA+B. pseudolongum (n=10) and naïve (n=5). OVA+B. pseudolongum groups were given 10^8 CFU B. pseudolongum in culture medium via gavage, every other day for 10 days and then every day for the remainder of the experiment (9 days). Fresh fecal pellets were collected upon defecation and stored in sterile RNA-/DNA-/RNAse-/DNAse-free microcentrifuge tubes at the beginning and end of experiment (FIG. 1). Collected pellets were placed at −80° C. for storage following collection. DNA from pellets were extracted using the PowerSoil DNA Isolation Kit (Qiagen, Hilden, Germany) according to the manufacturer's protocol. Amplicon library preparation and V4 region of 16S rRNA gene sequencing were performed at Illumina HiSeq 4000 (Illumina, CA, US) platform. Raw 16S rRNA sequences (150-bp paired-end reads) were initially processed by BaseSpace software (Illumina, CA, US). One mismatch in primer and zero mismatch in barcodes were applied to sample deconvolution. Deconvoluted sequences were further processed using the DADA2 data processing pipeline with default parameters to obtain amplicon sequence variants (ASVs). Final taxonomic assignment was conducted using RDP-classifier (v2.11) with 0.5 confidence value as cut-off. Reads with <0.5 confidence of classification was “unclassified” at a given taxonomical level. ASV counts were converted to relative abundance and agglomerated at the phylum and genus levels using the Phyloseq R package to visualize the microbiome composition in a stacked bar plot. […] Sample reads were rarefied to 10,000 reads to account for uneven sampling depth. Alpha diversity was determined with the richness and Shannon diversity metrics at the ASV level. Wilcoxon sum rank test was performed to compare alpha diversity of stool microbiome between asthma control and AKBA treated mice at day 0 and day 19. Beta diversity was visualized by principal component analysis (PCA). DESeq2, with an adjusted p value<0.05, was used for the differential taxa analysis. All plots were created with “ggplot2” and all analyses were conducted in RStudio version 4.1.0.

[3] = AKBA treated mice, baseline vs endpoint, DESeq p<0.05

CC(=O)O[C@@H]1CC[C@@]2(C)[C@@H](CC[C@]3(C)[C@@H]2C(=O)C=C2[C@@H]4[C@@H](C)[C@H](C)CC[C@]4(C)CC[C@]23C)[C@@]1(C)C(=O)O [AKBA, 3-O-acetyl-11-keto-b-boswellic acid] was tested, and the “BAL total leukocyte counts lower versus OVA control group” value ([1]; Mann-Whitney p=0.0002) was 46.69%, the “BAL total leukocyte counts higher than naïve control” value ([1]; Mann-Whitney p=0.0212) was 60.38% and the “percent eosinophil in BAL” value ([1]; OVA+AKBA mice) was 31.4%. For the same compound, the “absolute number of eosinophils in BAL” value ([1]; OVA+AKBA mice, mean±SD) was 17317.95±5552.67 eosinophil/mL, the “IL-10 in BAL fluid” value ([2]; not significant vs OVA control) was 19.77 ± 12.19 ng/mL and the “IL-13 in BAL fluid” value ([2]; not significant vs OVA control) was 4.15 ± 3.15 ng/mL. For the same compound, the “IL-5 in BAL fluid” value ([2]; p=0.0079 vs OVA control) was 31.39 ± 17.71 ng/mL, the “IL-4 in BAL fluid” value ([2]; p=0.0229 vs OVA control) was 9.30 ± 6.67 ng/mL and the “change in Hyphomicrobium, Solirubrobacter and Steroidobacter” value (gut microbiome; [3]) was “decreases”. The “change in Lactiplantibacillus, Lacticaseibacillus and Turicibacter” value (gut microbiome; [3]) was “increases”, the “overall richness and Shannon diversity of gut microbiome, baseline to endpoint” value (gut microbiome; OVA+AKBA group, 100 mg/kg AKBA) was “maintained” and the “Bifidobacterium increase, fold change” value (gut microbiome; OVA+AKBA group, baseline to endpoint, Wilcoxon p=0.07 vs OVA control) was 15.94±15.84 fold. For the same compound, the “the 24 genera decreased in OVA control mice (Table 1): decreased in treated group” value (gut microbiome; OVA+AKBA group, baseline vs end point) was “None” and the “relative abundances of Actinobacteria phyla and Bifidobacterium genus vs OVA control mice” value (gut microbiome; OVA+AKBA mice) was “significantly higher”.
